From patent publication US6355799B1, “Substituted benzene compounds, process for their preparation, and herbicidal and defoliant compositions containing them” (ISK Americas Incorporated, priority 1997, dated 2002)

Columns and labels:
Type in all cases: in vivo
[1] = system: green foxtail (Setaria viridis, SETVI); test: Pre-emerge test, greenhouse herbicide activity screening; settings: phytotoxicity rating 0-100, 14 days after application
Excerpt: (§1) A standard greenhouse herbicide activity screening system was used to evaluate the herbicidal efficacy and crop safety of these test compounds. Seven broadleaf weed species including redroot pigweed (Amaranthus retroflexus, AMARE, velvetleaf (Abutilon theophrasti, ABUTH), sicklepod (Cassia obtusifolia, CASOB), ivyleaf morningglory (Ipomoea hederacea, IPOHE), lambsquarters (Chenopodium album, CHEAL), common ragweed (Ambrosia artemisizfolia L., AMBEL), and cocklebur (Xanthium strumarium, XANST) were used as test species. Four grass weed species including green foxtail (Setaria viridis, SETVI), barnyardgrass (Echinochloa crus-galli, ECHCG), johnsongrass (Sorghum halepense, SORHA), and large crabgrass (Digitaria sanguinalis, DIGSA) were also used. In addition, three crop species, field corn (Zea mays L., var. Dekalb 535, CORN), soybean (Glycine max L., var. Pella 86, SOY), and is upland rice (Oryza sp., var. Tebonnet, RICE) were included.
(§2) All plants were grown in 10 cm square plastic pots which were filled with a sandy loam soil mix. For pre-emerge tests, seeds were planted one day prior to application of the test compounds. For post-emerge tests, seeds were planted 8-21 days prior to the test to allow emergence and good foliage development prior to application of the test substances. At the time of the post-emerge application, plants of all species were usually at the 2-3 leaf stage of development.
(§3) All test compounds Were dissolved in acetone and applied to the test units in a volume of 187 l /ha. Test materials were applied at rates ranging from 15 g ai/ha to 1000 g ai/ha using a track sprayer equipped with a TJ8001E even flow flat fan spray nozzle. Plants were arranged on a shelf so that the top of the canopy (post-emerge) or top of the soil surface (pre-emerge) was 40-45 cm below the nozzle. Pressurized air was used to force the test solution through the nozzle as it was mechanically advanced (via electrically driven chain drive) over the top of all test plants/pots. This application simulates a typical commercial field herbicide application.
(§4) In the post-emerge test, a commercial non-ionic surfactant was also included (0.25% v/v) to enhance wetting of the leaf surfaces of target plants. Immediately after application, test units of the pre-emerge applications were watered at the soil surface to incorporate the test materials. Subsequently, these test units were bottom-watered. Post-emerge test units were always bottom-watered.
(§5) At 14 days after application of the test materials, phytotoxicity ratings were recorded. A rating scale of 0-100 was used as previously described in Research Methods in Weed Science, 2nd edition, B. Truelove, Ed., Southern Weed Science Society, Auburn University, Auburn, Ala. 1977. Briefly, “0” corresponds to no damage and “100” corresponds to complete death of all plants in the test unit. This scale was used both to determine efficacy against weed species and damage to crop species. Herbicide activity data for various compounds of this invention, which are shown by compound No. in Tables 1-8, are shown in Tables 11 and 12.

[2] = system: lambsquarters (Chenopodium album, CHEAL); test: as above; settings: phytotoxicity rating 0-100, 14 days after application
Excerpt: as §1, §2, §3, §4, §5

[3] = system: velvetleaf (Abutilon theophrasti, ABUTH); test: as above; settings: phytotoxicity rating 0-100, 14 days after application
Excerpt: as §1, §2, §3, §4, §5

[4] = system: sicklepod (Cassia obtusifolia, CASOB); test: as above; settings: phytotoxicity rating 0-100, 14 days after application
Excerpt: as §1, §2, §3, §4, §5

[5] = system: ivyleaf morningglory (Ipomoea hederacea, IPOHE); test: as above; settings: phytotoxicity rating 0-100, 14 days after application
Excerpt: as §1, §2, §3, §4, §5

[6] = system: large crabgrass (Digitaria sanguinalis, DIGSA); test: as above; settings: phytotoxicity rating 0-100, 14 days after application
Excerpt: as §1, §2, §3, §4, §5

[7] = system: barnyardgrass (Echinochloa crus-galli, ECHCG); test: as above; settings: phytotoxicity rating 0-100, 14 days after application
Excerpt: as §1, §2, §3, §4, §5

[8] = system: field corn (Zea mays L., var. Dekalb 535, CORN); test: Post-emerge test, crop safety; settings: post-emerge, 14 days after application, rating scale 0-100
Method in brief: (§6)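 Visual ratings on a 0-100 scale (0 no damage, 100 all plants dead) were taken at 14 days after treatment. Rates of 15-1000 g ai/ha in acetone, 187 l/ha, were sprayed onto soil one day after planting (pre-emerge) or onto 2-3 leaf plants with 0.25% v/v surfactant (post-emerge).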

[9] = system: upland rice (Oryza sp., var. Tebonnet, RICE); test: Post-emerge test, crop safety; settings: post-emerge, 14 days after application, rating scale 0-100
Method in brief: as §6

[10] = system: green foxtail (Setaria viridis, SETVI); test: Post-emerge test, greenhouse herbicide activity screening; settings: post-emerge, 14 days after application, rating scale 0-100
Excerpt: as §1, §2, §3, §4, §5

[11] = system: lambsquarters (Chenopodium album, CHEAL); test: as above; settings: post-emerge, 14 days after application, rating scale 0-100
Excerpt: as §1, §2, §3, §4, §5

[12] = system: velvetleaf (Abutilon theophrasti, ABUTH); test: as above; settings: post-emerge, 14 days after application, rating scale 0-100
Excerpt: as §1, §2, §3, §4, §5

[13] = system: redroot pigweed (Amaranthus retroflexus, AMARE); test: as above; settings: post-emerge, 14 days after application
Excerpt: as §1, §2, §3, §4, §5

[14] = system: sicklepod (Cassia obtusifolia, CASOB); test: as above; settings: post-emerge, 14 days after application, rating scale 0-100
Excerpt: as §1, §2, §3, §4, §5

[15] = system: ivyleaf morningglory (Ipomoea hederacea, IPOHE); test: as above; settings: post-emerge, 14 days after application, rating scale 0-100
Excerpt: as §1, §2, §3, §4, §5

[16] = system: large crabgrass (Digitaria sanguinalis, DIGSA); test: as above; settings: post-emerge, 14 days after application, rating scale 0-100
Excerpt: as §1, §2, §3, §4, §5

[17] = system: barnyardgrass (Echinochloa crus-galli, ECHCG); test: as above; settings: post-emerge, 14 days after application, rating scale 0-100
Excerpt: as §1, §2, §3, §4, §5

[18] = system: redroot pigweed (Amaranthus retroflexus, AMARE); test: Pre-emerge test, greenhouse herbicide activity screening; settings: phytotoxicity rating 0-100, 14 days after application
Method in brief: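 Rating: 0–100 visual injury, 14 DAA. Application: acetone, 187 l/ha, 15–1000 g ai/ha, flat-fan track sprayer with nozzle 40–45 cm above soil or canopy. Post-emerge runs used 0.25% v/v surfactant on 2–3 leaf plants.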

[19] = system: field corn (Zea mays L., var. Dekalb 535, CORN); test: Pre-emerge test, crop safety; settings: crop damage rating 0-100, 14 days after application
Method in brief: (§7)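 Applied at 15–1000 g ai/ha from acetone in 187 l/ha spray volume. Post-emergence applications included 0.25% v/v non-ionic surfactant and reached plants sown 8–21 days before. Pre-emergence applications were incorporated by surface watering. Efficacy or crop damage was rated on a 0–100 scale after 14 days.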

[20] = system: upland rice (Oryza sp., var. Tebonnet, RICE); test: Pre-emerge test, crop safety; settings: crop damage rating 0-100, 14 days after application
Method in brief: as §7

For `COc1c(Cl)cc(F)c(-n2c(=O)cc(C(F)(F)F)n(C)c2=O)c1NC(=O)OCc1ccc2c(c1)OCO2` [4-41], the “Pre-emerge Herbicidal Activity SETVI” value ([1]; 63 g ai/ha) was 100, the “Pre-emerge Herbicidal Activity SETVI” value ([1]; 250 g ai/ha) was 100 and the “Pre-emerge Herbicidal Activity CHEAL” value ([2]; 63 g ai/ha) was 100. For the same compound, the “Pre-emerge Herbicidal Activity CHEAL” value ([2]; 250 g ai/ha) was 100, the “Pre-emerge Herbicidal Activity ABUTH” value ([3]; 63 g ai/ha) was 100 and the “Pre-emerge Herbicidal Activity ABUTH” value ([3]; 250 g ai/ha) was 100. The “Pre-emerge Herbicidal Activity CASOB” value ([4]; 63 g ai/ha) was 100, the “Pre-emerge Herbicidal Activity CASOB” value ([4]; 250 g ai/ha) was 100 and the “Pre-emerge Herbicidal Activity IPOHE” value ([5]; 63 g ai/ha) was 100. The “Pre-emerge Herbicidal Activity IPOHE” value ([5]; 250 g ai/ha) was 100, the “Pre-emerge Herbicidal Activity DIGSA” value ([6]; 63 g ai/ha) was 100 and the “Pre-emerge Herbicidal Activity DIGSA” value ([6]; 250 g ai/ha) was 100. The “Pre-emerge Herbicidal Activity ECHCG” value ([7]; 63 g ai/ha) was 80, the “Pre-emerge Herbicidal Activity ECHCG” value ([7]; 250 g ai/ha) was 90 and the “phytotoxicity rating CORN (crop damage)” value ([8]; 63 g ai/ha) was 75. For the same compound, the “phytotoxicity rating CORN (crop damage)” value ([8]; 250 g ai/ha) was 90, the “phytotoxicity rating RICE (crop damage)” value ([9]; 63 g ai/ha) was 50 and the “phytotoxicity rating RICE (crop damage)” value ([9]; 250 g ai/ha) was 85. The “phytotoxicity rating SETVI” value ([10]; 63 g ai/ha) was 95, the “phytotoxicity rating SETVI” value ([10]; 250 g ai/ha) was 95 and the “phytotoxicity rating CHEAL” value ([11]; 63 g ai/ha) was 100. For the same compound, the “phytotoxicity rating CHEAL” value ([11]; 250 g ai/ha) was 100, the “phytotoxicity rating ABUTH” value ([12]; 63 g ai/ha) was 100 and the “phytotoxicity rating ABUTH” value ([12]; 250 g ai/ha) was 100. The “phytotoxicity rating AMARE” value ([13]; 63 g ai/ha, rating scale 0-100 (0 no damage, 100 complete death)) was 100, the “phytotoxicity rating AMARE” value ([13]; 250 g ai/ha, rating scale 0-100) was 100 and the “phytotoxicity rating CASOB” value ([14]; 63 g ai/ha) was 100. For the same compound, the “phytotoxicity rating CASOB” value ([14]; 250 g ai/ha) was 100, the “phytotoxicity rating IPOHE” value ([15]; 63 g ai/ha) was 100 and the “phytotoxicity rating IPOHE” value ([15]; 250 g ai/ha) was 100. The “phytotoxicity rating DIGSA” value ([16]; 63 g ai/ha) was 90, the “phytotoxicity rating DIGSA” value ([16]; 250 g ai/ha) was 100 and the “phytotoxicity rating ECHCG” value ([17]; 63 g ai/ha) was 80. For the same compound, the “phytotoxicity rating ECHCG” value ([17]; 250 g ai/ha) was 90, the “Pre-emerge Herbicidal Activity AMARE” value ([18]; 63 g ai/ha) was 100 and the “Pre-emerge Herbicidal Activity AMARE” value ([18]; 250 g ai/ha) was 100. For the same compound, the “Pre-emerge Herbicidal Activity CORN” value ([19]; 63 g ai/ha) was 15, the “Pre-emerge Herbicidal Activity CORN” value ([19]; 250 g ai/ha) was 65 and the “Pre-emerge Herbicidal Activity RICE” value ([20]; 63 g ai/ha) was 40. The “Pre-emerge Herbicidal Activity RICE” value ([20]; 250 g ai/ha) was 80.
